From patent US7981927B2, “Steroids derivatives as selective progesterone receptor modulators” (Janssen Pharmaceutica N.V., priority 2007, dated 2011) come the findings set out here.

This assay has as its system T47D human breast cancer cells. The assay can be described thus: T47D human breast cancer cells alkaline phosphatase assay. As to conditions: 24 h with test compound, alkaline phosphatase luminescence readout. The class given is cell-based. On the procedure:
T47D human breast cancer cells were grown in RPMI medium without phenol red (Invitrogen) containing 10% (v/v) heat-inactivated fetal bovine serum (FBS; Hyclone), 1% (v/v) penicillin-streptomycin (Invitrogen), 1% (w/v) glutamine (Invitrogen), and […] insulin (Sigma). Incubation conditions were 37° C. in a humidified 5% (v/v) carbon dioxide environment.
The cells were plated in 96-well tissue culture plates at 10,000 cells per well in assay medium [RPMI medium without phenol red (Invitrogen) containing 5% (v/v) charcoal-treated FBS (Hyclone) and 1% (v/v) penicillin-streptomycin (Invitrogen)]. Two days later, the medium was decanted and test compound or control were added at a final concentration of 0.1% (v/v) dimethyl sulfoxide in fresh assay medium. Twenty-four hours later, an alkaline phosphatase assay was performed using a SEAP kit (BD Biosciences Clontech, Palo Alto, Calif.). Briefly, the medium was decanted and the cells were fixed for 30 minutes at room temperature with 5% (v/v) formalin (Sigma). The cells were washed once with room temperature Hank's buffered saline solution (Invitrogen). […] After 1 hour incubation at room temperature in the dark, the lysate was transferred to a white 96-well plate (Dynex) and luminescence was read using a LuminoSkan Ascent (Thermo Electron, Woburn, Mass.). […]

Each structure is given as a SMILES string.

Broadly, the IC50 is the concentration that gives 50% inhibition. Read a low IC50 as greater potency.

With `CC#C[C@]1(O)OCC[C@H]2[C@@H]3CCC4=CC(=O)CCC4=C3[C@@H](c3ccc(N(C)C)cc3)C[C@@]21C` (stereo in doubt) [compound 2, 11-(4-Dimethylamino-phenyl)-1-hydroxy-12a-methyl-1-prop-1-ynyl-1,3,4,4a,4b,5,6,9,10,11,12,12a-dodecahydro-2-oxa-chrysen-8-one], 33 nM corresponded to half-maximal inhibition (IC50).
`CN(C)c1ccc([C@@H]2C[C@]3(C)C(=O)OCC[C@H]3[C@@H]3CCC4=CC(=O)CCC4=C23)cc1` (stereo in doubt) [compound 1, 11-(4-Dimethylamino-phenyl)-12a-methyl-3,4,4a,5,6,9,10,11,12,12a-decahydro-4bH-2-oxa-chrysene-1,8-dione] gave an IC50 of 750 nM.
